22 molecules from patent US7750003B2, “Compounds-943” (AstraZeneca AB, priority 2006, dated 2010) can be followed below.

pIC50: −log10 of the molar value.

Chain of recombinant mTOR (FLAG-tagged, residues 1362-2549) (P42345 1362-2549): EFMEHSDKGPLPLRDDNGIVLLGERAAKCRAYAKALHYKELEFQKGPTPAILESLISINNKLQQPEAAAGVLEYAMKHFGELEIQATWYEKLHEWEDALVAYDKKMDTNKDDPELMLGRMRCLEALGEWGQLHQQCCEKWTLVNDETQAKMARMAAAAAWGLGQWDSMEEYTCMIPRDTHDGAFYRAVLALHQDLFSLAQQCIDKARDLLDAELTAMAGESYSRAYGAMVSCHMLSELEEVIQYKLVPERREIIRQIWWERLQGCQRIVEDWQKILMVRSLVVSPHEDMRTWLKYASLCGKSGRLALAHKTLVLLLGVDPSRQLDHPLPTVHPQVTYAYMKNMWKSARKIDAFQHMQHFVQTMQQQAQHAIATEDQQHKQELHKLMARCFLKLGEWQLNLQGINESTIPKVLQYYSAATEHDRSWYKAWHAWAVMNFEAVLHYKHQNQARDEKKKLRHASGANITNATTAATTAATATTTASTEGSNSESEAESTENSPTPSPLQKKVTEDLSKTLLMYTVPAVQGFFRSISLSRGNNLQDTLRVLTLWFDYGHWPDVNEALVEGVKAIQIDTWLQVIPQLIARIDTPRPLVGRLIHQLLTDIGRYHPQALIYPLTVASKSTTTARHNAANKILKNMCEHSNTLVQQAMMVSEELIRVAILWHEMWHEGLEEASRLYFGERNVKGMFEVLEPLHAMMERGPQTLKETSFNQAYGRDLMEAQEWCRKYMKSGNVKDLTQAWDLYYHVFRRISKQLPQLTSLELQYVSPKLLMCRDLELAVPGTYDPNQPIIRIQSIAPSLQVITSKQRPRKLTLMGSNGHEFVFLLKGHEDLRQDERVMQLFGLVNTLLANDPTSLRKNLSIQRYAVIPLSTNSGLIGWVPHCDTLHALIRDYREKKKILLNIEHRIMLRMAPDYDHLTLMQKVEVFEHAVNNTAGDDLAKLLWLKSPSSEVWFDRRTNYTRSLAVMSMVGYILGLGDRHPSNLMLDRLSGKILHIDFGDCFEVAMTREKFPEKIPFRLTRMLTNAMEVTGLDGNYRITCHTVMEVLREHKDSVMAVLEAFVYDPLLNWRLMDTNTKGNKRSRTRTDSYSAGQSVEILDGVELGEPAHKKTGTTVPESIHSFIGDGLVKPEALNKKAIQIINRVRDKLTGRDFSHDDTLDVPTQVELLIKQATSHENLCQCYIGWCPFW

The first assay has as its system phosphorylation of Serine 473 in Akt in MDA-MB-468 human breast adenocarcinoma cells. The experiment in a line: In vitro phospho-Ser473 Akt assay (Test (c)). It is filed as cell-based. Conditions: Homo sapiens, MDA-MB-468, 2 h, MDA-MB-468 cells, 2 hours incubation; read-out: Test (c): IC50 versus Serine 473 in Akt. On the procedure: (c) In Vitro Phospho-Ser473 Akt Assay
This assay determines the ability of test compounds to inhibit phosphorylation of Serine 473 in Akt as assessed using Acumen Explorer technology (Acumen Bioscience Limited), a plate reader that can be used to rapidly quantitate features of images generated by laser-scanning.
A MDA-MB-468 human breast adenocarcinoma cell line (LGC Promochem, Teddington, Middlesex, UK, Catalogue No. HTB-132) was routinely maintained at 37° C. with 5% CO2 up to a confluency of 70-90% in DMEM containing 10% heat-inactivated FCS and 1% L-glutamine.
For the assay, the cells were detached from the culture flask using ‘Accutase’ (Innovative Cell Technologies Inc., San Diego, Calif., USA; Catalogue No. AT104) using standard tissue culture methods and resuspended in media to give 1.7×10^5 cells per mL. Aliquots (90 μl) were seeded into each of the inner 60 wells of a black Packard 96 well plate (PerkinElmer, Boston, Mass., USA; Catalogue No. 6005182) to give a density of 15000 cells per well. Aliquots (90 μl) of culture media were placed in the outer wells to prevent edge effects. The cells were incubated overnight at 37° C. with 5% CO2 to allow them to adhere.
On day 2, the cells were treated with test compounds and incubated for 2 hours at 37° C. with 5% CO2. Test compounds were prepared as 10 mM stock solutions in DMSO and serially diluted as required with growth media to give a range of concentrations that were 10-fold the required final test concentrations. Aliquots (10 μl) of each compound dilution were placed in a well (in triplicate) to give the final required concentrations. As a minimum response control, each plate contained wells having a final concentration of 100 μM LY294002 (Calbiochem, Beeston, UK, Catalogue No. 440202). As a maximum response control, wells contained 1% DMSO instead of test compound. Following incubation, the contents of the plates were fixed by treatment with a 1.6% aqueous formaldehyde solution (Sigma, Poole, Dorset, UK, Catalogue No. F1635) at room temperature for 1 hour.
All subsequent aspiration and wash steps were carried out using a Tecan 96 well plate washer (aspiration speed 10 mm/sec). The fixing solution was removed and the contents of the plates were washed with phosphate-buffered saline (PBS; 50 μl; Gibco, Catalogue No. 10010015). The contents of the plates were treated for 10 minutes at room temperature with an aliquot (50 μl) of a cell permeabilisation buffer consisting of a mixture of PBS and 0.5% Tween-20. The ‘permeabilisation’ buffer was removed and non-specific binding sites were blocked by treatment for 1 hour at room temperature of an aliquot (50 μl) of a blocking buffer consisting of 5% dried skimmed milk [‘Marvel’ (registered trade mark); Premier Beverages, Stafford, GB] in a mixture of PBS and 0.05% Tween-20. The ‘blocking’ buffer was removed and the cells were incubated for 1 hour at room temperature with rabbit anti phospho-Akt (Ser473) antibody solution (50 μl per well; Cell Signalling, Hitchin, Herts, U.K., Catalogue No 9277) that had been diluted 1:500 in ‘blocking’ buffer. Cells were washed three times in a mixture of PBS and 0.05% Tween-20. Subsequently, cells were incubated for 1 hour at room temperature with Alexafluor488 labelled goat anti-rabbit IgG (50 μl per well; Molecular Probes, Invitrogen Limited, Paisley, UK, Catalogue No. A11008) that had been diluted 1:500 in ‘blocking’ buffer. Cells were washed 3 times with a mixture of PBS and 0.05% Tween-20. An aliquot of PBS (50 μl) was added to each well and the plates were sealed with black plate sealers and the fluorescence signal was detected and analysed.
Fluorescence dose response data obtained with each compound were analysed and the degree of inhibition of Serine 473 in Akt was expressed as an IC50 value.
As to `C[C@H]1COCCN1c1cc(CS(C)(=O)=O)nc(-c2ccc(NC(=O)Nc3cccc(=O)[nH]3)cc2)n1` [Example 22c, 1-[4-[4-[(3S)-3-methylmorpholin-4-yl]-6-(methylsulfonylmethyl)pyrimidin-2-yl]phenyl]-3-(6-oxo-1H-pyridin-2-yl)urea], the pIC50 (usually the negative decadic logarithm of the IC50, by convention in mol/L) is 6.68.
Turning to `CCNC(=O)Nc1ncc(-c2nc(N3CCOC[C@@H]3C)cc(C(C)(C)S(C)(=O)=O)n2)cn1` [Example 24af, 1-ethyl-3-[5-[4-[(3S)-3-methylmorpholin-4-yl]-6-(2-methylsulfonylpropan-2-yl)pyrimidin-2-yl]pyrimidin-2-yl]urea], the pIC50 was 5.85.
Still for that read-out and setting: the figure for `C[C@H]1COCCN1c1cc(C(C)(C)S(C)(=O)=O)nc(-c2cnc(NC(=O)NC3CC3)nc2)n1` [Example 24ag, 3-cyclopropyl-1-[5-[4-[(3S)-3-methylmorpholin-4-yl]-6-(2-methylsulfonylpropan-2-yl)pyrimidin-2-yl]pyrimidin-2-yl]urea] is 6.49.
For `CNC(=O)Nc1ccc(-c2nc(N3CCOC[C@@H]3C)cc(C(C)(C)S(C)(=O)=O)n2)cn1` [Example 24ah, 3-methyl-1-[5-[4-[(3S)-3-methylmorpholin-4-yl]-6-(2-methylsulfonylpropan-2-yl)pyrimidin-2-yl]pyridin-2-yl]urea], the pIC50 was 6.29.
Regarding `CCNC(=O)Nc1ccc(-c2nc(N3CCOC[C@@H]3C)cc(C(C)(C)S(C)(=O)=O)n2)cn1` [Example 24ai, 1-ethyl-3-[5-[4-[(3S)-3-methylmorpholin-4-yl]-6-(2-methylsulfonylpropan-2-yl)pyrimidin-2-yl]pyridin-2-yl]urea], the pIC50 is 6.59.
For `C[C@H]1COCCN1c1cc(C(C)(C)S(C)(=O)=O)nc(-c2ccc(NC(=O)NC3CC3)nc2)n1` [Example 24aj, 3-cyclopropyl-1-[5-[4-[(3S)-3-methylmorpholin-4-yl]-6-(2-methylsulfonylpropan-2-yl)pyrimidin-2-yl]pyridin-2-yl]urea], the pIC50 is 6.35.
Same read-out and setting: to `CCCNC(=O)Nc1ccc(-c2nc(N3CCOC[C@@H]3C)cc(C(C)(C)S(C)(=O)=O)n2)cc1` [Example 24ak, 3-[4-[4-[(3S)-3-methylmorpholin-4-yl]-6-(2-methylsulfonylpropan-2-yl)pyrimidin-2-yl]phenyl]-1-propyl-urea] belongs 6.68; to `CC(C)NC(=O)Nc1ccc(-c2nc(N3CCOC[C@@H]3C)cc(C(C)(C)S(C)(=O)=O)n2)cc1` [Example 24al, 1-[4-[4-[(3S)-3-methylmorpholin-4-yl]-6-(2-methylsulfonylpropan-2-yl)pyrimidin-2-yl]phenyl]-3-propan-2-yl-urea], 7.42.
In the case of `C[C@H]1COCCN1c1cc(C(C)(C)S(C)(=O)=O)nc(-c2ccc(NC(=O)NC3CCC3)cc2)n1` [Example 24am, 3-cyclobutyl-1-[4-[4-[(3S)-3-methylmorpholin-4-yl]-6-(2-methylsulfonylpropan-2-yl)pyrimidin-2-yl]phenyl]urea], the pIC50 was 6.68.
For the molecule `C[C@H]1COCCN1c1cc(C(C)(C)S(C)(=O)=O)nc(-c2ccc(NC(=O)NC(C)(C)CO)cc2)n1` [Example 24an, 3-(1-hydroxy-2-methyl-propan-2-yl)-1-[4-[4-[(3S)-3-methylmorpholin-4-yl]-6-(2-methylsulfonylpropan-2-yl)pyrimidin-2-yl]phenyl]urea], the pIC50 was 5.74.
Still for that read-out and setting: the figure for `C[C@H]1COCCN1c1cc(C(C)(C)S(C)(=O)=O)nc(-c2ccc(NC(=O)NCc3cccnc3)cc2)n1` [Example 24ao, 1-[4-[4-[(3S)-3-methylmorpholin-4-yl]-6-(2-methylsulfonylpropan-2-yl)pyrimidin-2-yl]phenyl]-3-(pyridin-3-ylmethyl)urea] is 6.62; for `C[C@H](CO)NC(=O)Nc1ccc(-c2nc(N3CCOC[C@@H]3C)cc(C(C)(C)S(C)(=O)=O)n2)cc1` [Example 24ap, 3-[(2R)-1-hydroxypropan-2-yl]-1-[4-[4-[(3S)-3-methylmorpholin-4-yl]-6-(2-methylsulfonylpropan-2-yl)pyrimidin-2-yl]phenyl]urea] it is 7.11.
As to `C[C@H]1COCCN1c1cc(C(C)(C)S(C)(=O)=O)nc(-c2ccc(NC(=O)NCC3CC3)cc2)n1` [Example 24aq, 3-(cyclopropylmethyl)-1-[4-[4-[(3S)-3-methylmorpholin-4-yl]-6-(2-methylsulfonylpropan-2-yl)pyrimidin-2-yl]phenyl]urea], the pIC50 is 5.70.
`C[C@H]1COCCN1c1cc(C(C)(C)S(C)(=O)=O)nc(-c2ccc(NC(=O)NCc3ccncc3)cc2)n1` [Example 24ar, 1-[4-[4-[(3S)-3-methylmorpholin-4-yl]-6-(2-methylsulfonylpropan-2-yl)pyrimidin-2-yl]phenyl]-3-(pyridin-4-ylmethyl)urea]: the pIC50 is 7.31.

The assay is the same for the next values; noted with them: MDA-MB-468 cells, 2 hours incubation; read-out: Test (c): IC50 versus Serine 473 in Akt.
For “1-[4-[4-[(3S)-3-methylmorpholin- 4-yl]-6-(2-propan-2- yl]phenyl]-3-pyridin-2-yl-urea [Example 60u]”, the negative logarithm of the IC50 (pIC50) was 6.80.

Another assay has as its target recombinant mTOR (FLAG-tagged, residues 1362-2549) (Homo sapiens, UniProt P42345). The experiment in a line: In vitro mTOR kinase assay (Test (a), AlphaScreen). To be noted: ATP 20 μM, read-out: Test (a): IC50 versus mTOR kinase. It is filed as biochemical. An outline of the steps:
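AlphaScreen read-out: a phospho-T389 p70 S6K antibody on acceptor beads captures the phosphorylated biotin-peptide on donor beads, with signal loss indicating inhibition.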
In general terms: Alpha assays give light when donor and acceptor beads are brought close together.
For `C[C@H]1COCCN1c1cc(CN(C)C2CC2)nc(-c2ccc(NC(=O)NCc3cnn(C)c3)cc2)n1` [Example 52b, 1-[4-[4-[(cyclopropyl-methyl-amino)methyl]-6-[(3S)-3-methylmorpholin-4-yl]pyrimidin-2-yl]phenyl]-3-[(1-methylpyrazol-4-yl)methyl]urea], the pIC50 was 6.24.
As for `CC(=O)NCCS(=O)(=O)Cc1cc(N2CCOC[C@@H]2C)nc(-c2ccc(NC(=O)NCc3cnn(C)c3)cc2)n1` [Example 53, N-[2-[[6-[(3S)-3-methylmorpholin-4-yl]-2-[4-[(1-methylpyrazol-4-yl)methylcarbamoylamino]phenyl]pyrimidin-4-yl]methylsulfonyl]ethyl]acetamide], the pIC50 was 6.19.
On to `C[C@H]1COCCN1c1cc(CS(=O)(=O)CC(N)=O)nc(-c2ccc(NC(=O)NCc3cnn(C)c3)cc2)n1` [Example 53a], for which the pIC50 was 6.22.
With `C[C@H]1COCCN1c1cc(CS(=O)(=O)c2ccncc2)nc(-c2ccc(NC(=O)NCc3cnn(C)c3)cc2)n1` [Example 53c, 1-[4-[4-[(3S)-3-methylmorpholin-4-yl]-6-(pyridin-4-ylsulfonylmethyl)pyrimidin-2-yl]phenyl]-3-[(1-methylpyrazol-4-yl)methyl]urea], the pIC50 is 7.52.
As for `C[C@H]1COCCN1c1cc(CS(=O)(=O)C2CC2)nc(-c2ccc(NC(=O)NC3CC3)cc2)n1` [Example 55, 3-Cyclopropyl-1-[4-[4-(cyclopropylsulfonylmethyl)-6-[(3S)-3-methylmorpholin-4-yl]pyrimidin-2-yl]phenyl]urea], the pIC50 was 7.21.
Take `C[C@H]1COCCN1c1cc(C(C)(C)S(=O)(=O)C2CC2)nc(-c2ccc(NC(=O)NC3CC3)cc2)n1` [Example 56, 3-Cyclopropyl-1-[4-[4-(2-cyclopropylsulfonylpropan-2-yl)-6-[(3S)-3-methylmorpholin-4-yl]pyrimidin-2-yl]phenyl]urea]: the pIC50 was 5.62.
On the same count and under the same terms, the figure for `CCNC(=O)Nc1ccc(-c2nc(CS(=O)(=O)c3ccccn3)cc(N3CCOC[C@@H]3C)n2)cc1` [Example 71, 3-Ethyl-1-[4-[4-[(3S)-3-methylmorpholin-4-yl]-6-(pyridin-2-ylsulfonylmethyl)pyrimidin-2-yl]phenyl]urea] is 7.49.
